The text below walks through data of patent US20150018566A1, “TUBULIN BINDING AGENTS” (priority 2011, published 2015).

In general, IC50 refers to the concentration that gives 50% inhibition. For orientation: inhibition means the relative decrease from the control value, in per cent.

The target in data set [1] is T1, tubulin (Sus scrofa, UniProt P02550+P02554).
T1 construct: The procedure used is modified from Shelanski et al; from tissue
The data set can be described thus: Tubulin assembly assay (tubulin binding). In kind it is biochemical, porcine.
Protocol: The buffer was prepared with deionised water and the pH of the solution was adjusted to 6.6 by the drop-wise addition of 10M aq. NaOH. The buffer was stored at 4° C. prior to use.
Equipment: A Fluostar Optima 96 well plate reader equipped with a thermostat capability.
The tubulin assembly was followed by observing an increase in optical density of a tubulin solution at 350 nm at 37° C. Typically 1 ml of tubulin solution was diluted with EB (5 ml) and GTP solution (25 μl, 5 μl per ml of EB added) to the mixture. The mixture was vortexed for ten seconds in order to ensure the homogeneity of the mixture. 100 μl of the resultant solution was pipetted into a well in the 96 well plate. The increase in optical density of the tubulin solution was measured over a time course of ten minutes at 350 nm and 37° C. […] Accordingly, adjustments were made to the quantity of buffer added in order to obtain a protein concentration within the desired range. […] Tubulin solution (1000 was subsequently pipetted into each of the same three wells. The plate was immediately incubated at 37° C. and was subjected to orbital shaking for five seconds. The UV absorption was measured at 350 nm over a time course of ten minutes. The maximum slope of the resulting curve was measured. The slope of the blank represents the maximum rate of tubulin polymerisation.

Data set [2] concerns HUVECs. The experiment in a line: Cell cycle analysis, G2/M phase, PI staining and flow cytometry. The settings on record: 24 h treatment. The class given is cell-based, human. An excerpt:
Proliferating cells are constantly dividing to produce daughter cells. The most obvious cellular structure that requires duplication and division is the cell nucleus where DNA, cell's genetic material is present. During a cell cycle there are changes in the DNA content and thus there are different cycle stages including G0, G1, S, G2 and M (mitosis). The G0 stage of the cycle is a subset of G1 where the cells are quiescent and have limited cellular functions. Cells remain in the G1 portion of the cycle when are not in a process of cell division and thus G1 phase is the most predominant phase of the cycle appearing as the largest peak. In addition, during the G1 phase synthesis of many RNA and protein molecules is taking place which are necessary for DNA synthesis. G2 phase is a period for repair of any damaged DNA and for reorganisation of the DNA structure before entering the M phase. Cell cycle abnormalities could be a sign of cell damage, for example DNA damage causes interruption of the cell cycle at certain checkpoints such as the spindle assembly checkpoint (SAC) to prevent carcinogenesis.
The mitotic spindle is composed of microtubules which together with regulatory proteins assist in the activity of properly segregating replicated chromosomes. It is well established that treatment of cells with tubulin polymerization inhibitors causes a G2/M phase arrest of the cell cycle and thus an observable increased DNA content at that stage.
For this reason, cell cycle analysis was carried out using propidium iodide (PI) staining. The first protocol was presented by Krishan in 1975 [6]. The first step involves permeabilisation of the cells' plasma membrane by fixating the cells in ethanol in order for the fluorescent DNA dye to pass through the membrane and into the cells. Ribonuclease A (RNase A) was used to eliminate any RNA present inside the cells in order to avoid creating artefacts that could affect the results. PI was used for the staining of the cells' DNA content; however other fluorescent dyes can be used instead, such as DAPI and Hoechst 33342.
Flow cytometry was used to quantify the DNA contents of the cells. This is a technique which was first introduced by Fulwyler which examines and counts cells or other microscopic particles by suspending them in a stream of fluid and passing them by an electronic detection apparatus. Cells had to pass through the flow cytometer's laser where a fluorescence pulse was generated and it correlated with the amount of DNA dye present inside the cells. […]
Cell cycle arrest at the G2/M phase was examined by PI-staining. […] Cell suspension was kept at 4° C. until ready for analysis. […] Samples were analyzed using a Beckman Coulter (Dako) 2-laser CyAn ADP analyser provided by the Department of Biochemistry, TCD. […]

The target in data set [3] is T2, APN enzyme present on HUVECs (Homo sapiens, UniProt P15144).
T2 construct: The presence of APN-expres sing cells replaced the step of the addition of the actual APN enzyme; host or cells: HUVECs
T2 sequence (P15144 whole entry): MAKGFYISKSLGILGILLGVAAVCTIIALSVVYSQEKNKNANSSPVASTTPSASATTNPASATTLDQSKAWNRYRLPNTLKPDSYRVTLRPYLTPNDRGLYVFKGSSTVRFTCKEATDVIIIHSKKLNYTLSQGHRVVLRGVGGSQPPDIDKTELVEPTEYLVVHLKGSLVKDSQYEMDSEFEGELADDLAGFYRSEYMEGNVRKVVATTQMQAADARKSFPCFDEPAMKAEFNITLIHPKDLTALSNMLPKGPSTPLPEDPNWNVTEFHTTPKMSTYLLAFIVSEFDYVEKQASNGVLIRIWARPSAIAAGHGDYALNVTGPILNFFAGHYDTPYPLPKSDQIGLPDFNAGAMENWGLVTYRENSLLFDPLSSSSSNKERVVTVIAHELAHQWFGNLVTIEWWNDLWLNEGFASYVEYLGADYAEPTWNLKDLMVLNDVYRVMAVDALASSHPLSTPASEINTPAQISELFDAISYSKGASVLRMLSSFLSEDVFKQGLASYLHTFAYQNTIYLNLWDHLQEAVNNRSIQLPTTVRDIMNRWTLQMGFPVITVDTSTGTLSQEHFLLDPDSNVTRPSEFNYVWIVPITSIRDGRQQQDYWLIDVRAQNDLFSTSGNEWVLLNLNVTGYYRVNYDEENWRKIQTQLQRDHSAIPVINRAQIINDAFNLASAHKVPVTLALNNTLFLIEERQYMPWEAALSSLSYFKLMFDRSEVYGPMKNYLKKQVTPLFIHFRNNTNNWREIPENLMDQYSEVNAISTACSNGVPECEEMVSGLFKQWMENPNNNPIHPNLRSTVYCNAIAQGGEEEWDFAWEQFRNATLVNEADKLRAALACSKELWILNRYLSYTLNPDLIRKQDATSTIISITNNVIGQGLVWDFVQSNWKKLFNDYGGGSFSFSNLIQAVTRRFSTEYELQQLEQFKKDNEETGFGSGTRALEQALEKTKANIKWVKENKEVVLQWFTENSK
The data set can be described thus: APN cell-based assay, HUVECs. As to the method:
(§1) To further investigate the APN inhibitory effect of the hybrids the APN cell-based assay was carried out as previously described using both HUVECs and PC-3 cells. In order to exclude any possible cytotoxic effects of the tubulin component of the hybrids that could interfere with the outcome of the results, it was necessary to perform cytotoxicity assays. For this purpose, the MTT assay was used as previously described; however the duration of compounds' incubation was modified to 2 h in order to correlate with the incubation period of APN cell-based assay. The presence of APN-expres sing cells replaced the step of the addition of the actual APN enzyme and the rest of the protocol remained the same. The release of the resulting product p-nitroaniline was measured spectrophotometrically at 405 nm and the level of APN present […] the cells was directly related to the intensity of the colour absorbance.
(§2) HUVECs/PC-3 cells' surface APN activity was estimated spectrophotometrically using L-leucine-p-nitroanilide as an APN substrate. 1×10^6 cells/ml ([…]) were seeded in 96-well plate and incubated overnight at 37° C. The following day cell medium was replaced by various concentrations of compounds diluted in HEPES buffer (100 μl). […] L-leucine-p-nitroanilide (50 μl) was added to each well to give a final concentration of 2 mM. Following 2 h incubation at 37° C., absorbance was measured at 405 nm using a FLUOstar OPTIMA microplate reader (BMG labtech). Each compound concentration was tested in quadruplicate and each experiment was performed at three independent times. The percentage APN inhibition was determined using the formula below and where appropriate, IC50 values were obtained.
(§3) % APN inhibition=100−[(mean Abs of test compound)/(mean Abs of control)]*100

Data set [4] concerns the target T3, APN enzyme present on PC-3 cells (Homo sapiens, UniProt P15144).
T3 construct: PC-3 cell line was selected due to its high expression of APN; host or cells: PC-3
The experiment in a line: APN cell-based assay, PC-3 cells. As to the method: as §1, §2, §3

Data set [5] relates to HUVECs. The data set can be described thus: MTT cytotoxicity assay, HUVECs. The class given is cell-based, human. As to the method:
as §1
Cell growth inhibition was assessed using the MTT assay. 5×10^4 cells/ml HUVECs or PC-3 cells (180 μl) were inoculated into each well of a 96-well plate and incubated overnight at 37° C. Compounds or control solutions (20 μl) were added into each well and the plates were incubated for 72 h. CA-4 was used as a positive control. […] The percentage growth inhibition was determined using the formula below and the results were expressed in terms of IC50 values.
(Formazan colour is commonly taken as a measure of viable cells.)

Where [6] appears, read: HUVEC, read-out: percentage APN inhibition.

Like-named read-outs stand apart in the source and are kept apart here.

T3 sequence (P15144 whole entry): as above
T1 sequence (P02550 whole entry): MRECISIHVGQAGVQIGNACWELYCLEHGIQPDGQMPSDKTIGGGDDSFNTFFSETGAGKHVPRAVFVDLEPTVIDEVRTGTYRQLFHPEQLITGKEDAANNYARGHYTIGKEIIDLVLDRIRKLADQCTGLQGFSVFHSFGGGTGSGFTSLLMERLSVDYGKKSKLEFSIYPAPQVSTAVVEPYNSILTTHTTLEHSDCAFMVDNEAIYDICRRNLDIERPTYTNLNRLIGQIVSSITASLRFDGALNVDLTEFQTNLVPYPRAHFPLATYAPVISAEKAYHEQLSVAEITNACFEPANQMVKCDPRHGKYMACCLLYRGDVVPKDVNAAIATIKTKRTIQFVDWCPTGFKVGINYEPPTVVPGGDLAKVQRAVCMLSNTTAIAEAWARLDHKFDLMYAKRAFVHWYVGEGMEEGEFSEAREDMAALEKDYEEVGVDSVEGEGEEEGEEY
T1 sequence (P02554 whole entry): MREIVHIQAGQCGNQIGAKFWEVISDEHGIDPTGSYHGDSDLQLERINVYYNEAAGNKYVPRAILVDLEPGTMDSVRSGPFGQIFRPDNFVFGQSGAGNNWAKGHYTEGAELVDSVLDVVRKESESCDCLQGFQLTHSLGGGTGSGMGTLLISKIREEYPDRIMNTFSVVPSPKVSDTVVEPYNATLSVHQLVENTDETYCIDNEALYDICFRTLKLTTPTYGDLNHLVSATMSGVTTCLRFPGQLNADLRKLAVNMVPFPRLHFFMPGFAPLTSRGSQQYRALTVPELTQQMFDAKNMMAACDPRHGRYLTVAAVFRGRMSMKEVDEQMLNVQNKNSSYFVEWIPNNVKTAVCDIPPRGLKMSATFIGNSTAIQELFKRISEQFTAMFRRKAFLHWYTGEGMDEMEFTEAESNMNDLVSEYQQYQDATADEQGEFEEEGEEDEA

As to `COc1ccc(C2=CC(=O)CCc3c2cc(OC)c(OC)c3OC)cc1O` [Compound 1, (Z)-8,9-dihydro-5-(3-hydroxy-4-methoxyphenyl)-1,2,3-trimethoxybenzo[7]annulen-7-one], the IC50 in data set [1] came out at 1050 nM. The “percentage of cells in the G2/M phase” value in data set [2] (0.5 μM) is 86.3±2.3%; in data set [2] (1 μM) it was 79.35±1.7%.

On to `COc1ccc(C2=CC(=O)CCc3c2cc(OC)c(OC)c3OC)cc1N` [Compound 28, 2-methoxy-5-(2,3,4-trimethoxy-7-oxo-6,7-dihydro-5H-benzo[7]annulen-9-yl)benzenaminium chloride], for which the “percentage of cells in the G2/M phase” value in data set [2] (0.5 μM) is given as 81.25±0.6%; in data set [2] (1 μM), 76.07±4.82%.

For `COc1ccc(C2=CC(=O)CCc3c2cc(OC)c(OC)c3OC)cc1OC(=O)C(CC(C)C)NC(=O)C(O)C(N)Cc1ccccc1.Cl` (centres unmarked) [Compound 44], the inhibition at 0.1 µM in data set [3] (setting [6]) came to 31.9 ± 19%. The inhibition at 1 µM worked out at 52.6 ± 14.7% in data set [3] (setting [6]) and 27.8 ± 2.1% in data set [4] (PC-3, read-out: percentage APN inhibition, 1 μM, PC-3 cells, 2 h incubation). For the same compound, the inhibition at 5 µM in data set [3] (setting [6]) came to 64 ± 16.1%; in data set [4] (PC-3, read-out: percentage APN inhibition, 5 μM, PC-3 cells, 2 h incubation) it was 44.6 ± 7.3%. Besides, the “percentage APN inhibition” value in data set [4] (1 μM, PC-3 cells, 2 h incubation) stood at 31.3±8.9%; in data set [4] (5 μM, PC-3 cells, 2 h incubation), 51.7±8.5%; in data set [4] (10 μM, PC-3 cells, 2 h incubation), 55.7±9.8%; in data set [4] (20 μM, PC-3 cells, 2 h incubation), 71.4±7.5%. In data set [4] (PC-3, read-out: percentage APN inhibition, 10 μM, PC-3 cells, 2 h incubation), the inhibition at 10 µM was found to be 63.7 ± 7.68%. In addition, the inhibition at 20 µM in data set [4] (PC-3, read-out: percentage APN inhibition, 20 μM, PC-3 cells, 2 h incubation) amounted to 53.4 ± 16.1%. Further, the “APN inhibition relative to bestatin” value in data set [4] (PC-3 cells) is listed as 2 fold.

In the case of `COc1ccc(C2=CC(=O)COc3c2cc(OC)c(OC)c3OC)cc1OC(=O)C(CC(C)C)NC(=O)C(O)C(N)Cc1ccccc1.Cl` (centres unmarked) [Compound 45, 2-methoxy-5-(7,8,9-trimethoxy-3-oxo-2H-1-benzoxepin-5-yl)phenyl 2-(3-amino-2-hydroxy-4-phenylbutanamido)-4-methylpentanoate], in data set [3] (HUVEC, 0.1 μM, HUVECs, 2 h incubation, read-out: percentage APN inhibition), the inhibition at 0.1 µM worked out at 18.1 ± 2.9%. The inhibition at 0.5 µM in data set [3] (HUVEC, 0.5 μM, HUVECs, 2 h incubation, read-out: percentage APN inhibition) stood at 21.6 ± 2.2%. Further, the “APN inhibition relative to bestatin” value in data set [3] (HUVECs) was “superior activity to that of bestatin”; in data set [4] (PC-3 cells) it was “significantly more potent APN inhibitor than bestatin”. Also, the inhibition at 1 µM in data set [4] (1 μM, PC-3 cells, 2 h incubation, read-out: percentage APN inhibition) worked out at 47.9 ± 1.23%. In addition, the inhibition at 5 µM in data set [4] (5 μM, PC-3 cells, 2 h incubation, read-out: percentage APN inhibition) is 51.7 ± 1.38%. Besides, the inhibition at 10 µM in data set [4] (10 μM, PC-3 cells, 2 h incubation, read-out: percentage APN inhibition) was determined as 51.9 ± 3.89%. In addition, the inhibition at 20 µM in data set [4] (20 μM, PC-3 cells, 2 h incubation, read-out: percentage APN inhibition) came to 56.5 ± 3.13%. Also, the “cytotoxic effect on HUVECs” value in data set [5] was “potent cytotoxic effect”.
